Where a name gives a salt, the structure may show the parent alone. Read-outs that look alike come from different tables or passages of the source.
What was measured:
[1] = for t1/2: Rat Intraveneous, 20 mpk
recombinant human MMP-2 = biological target: T1, recombinant human MMP-2 (Homo sapiens, UniProt P08253); assay: biochemical
T1 sequence (P08253 110-660): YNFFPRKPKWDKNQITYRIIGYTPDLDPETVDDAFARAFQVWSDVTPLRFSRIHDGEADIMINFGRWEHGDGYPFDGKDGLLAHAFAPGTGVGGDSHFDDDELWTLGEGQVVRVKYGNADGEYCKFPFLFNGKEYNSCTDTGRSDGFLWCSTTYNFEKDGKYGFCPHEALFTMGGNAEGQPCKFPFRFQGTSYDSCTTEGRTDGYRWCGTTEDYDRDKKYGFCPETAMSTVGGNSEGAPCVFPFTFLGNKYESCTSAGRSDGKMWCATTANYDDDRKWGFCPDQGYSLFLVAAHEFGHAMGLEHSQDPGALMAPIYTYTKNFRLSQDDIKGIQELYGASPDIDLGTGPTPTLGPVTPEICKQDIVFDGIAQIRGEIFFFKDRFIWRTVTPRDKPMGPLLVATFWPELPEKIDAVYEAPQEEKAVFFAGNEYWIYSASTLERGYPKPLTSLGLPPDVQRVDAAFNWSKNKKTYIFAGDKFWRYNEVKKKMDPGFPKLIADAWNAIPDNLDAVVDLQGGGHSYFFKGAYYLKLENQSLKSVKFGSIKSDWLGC

recombinant human MMP-13 = recombinant human MMP-13 (Homo sapiens, UniProt P45452); assay: biochemical
recombinant human MMP-1 = biological target: T2, recombinant human MMP-1 (Homo sapiens, UniProt P03956); assay: biochemical
T2 construct: made in house; host or cells: transfected HT-1080 cells
T2 sequence (P03956 100-469): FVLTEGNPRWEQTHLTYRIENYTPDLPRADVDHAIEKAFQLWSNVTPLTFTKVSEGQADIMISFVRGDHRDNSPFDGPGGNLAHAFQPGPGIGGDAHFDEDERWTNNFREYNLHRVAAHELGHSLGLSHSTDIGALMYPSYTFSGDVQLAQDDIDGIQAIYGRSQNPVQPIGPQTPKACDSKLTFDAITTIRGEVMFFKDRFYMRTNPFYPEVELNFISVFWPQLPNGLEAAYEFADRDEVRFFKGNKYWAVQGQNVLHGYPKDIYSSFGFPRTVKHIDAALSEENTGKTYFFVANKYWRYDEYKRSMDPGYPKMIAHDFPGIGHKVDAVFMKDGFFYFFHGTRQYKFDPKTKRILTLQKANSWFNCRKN

Row | Compound | Blood Level @ 6 hr ([1]; rat, in vivo, po, 20 mg/kg) [ng/mL] | t1/2 [1] [h] | IC50 (recombinant human MMP-2; Inhibition Table B) [nM] | IC50 (recombinant human MMP-13; Inhibition Table B) [nM] | IC50 (recombinant human MMP-1; Inhibition Table B) [nM] | IC50 (recombinant human MMP-2; room temperature, pH 7.5, 1 percent DMSO, 4 μM MCA peptide substrate, no asterisk) [nM] | IC50 (recombinant human MMP-13; room temperature, pH 7.5, 1 percent DMSO, 4 μM MCA peptide substrate) [nM] | IC50 (recombinant human MMP-1) [nM]
1 | Cl.O=C(NO)C1(S(=O)(=O)c2ccc(Oc3ccc4c(c3)OCO4)cc2)CCN(C2CC2)CC1 [Example 421, 4-[[4-(1,3-benzodioxol-5-yloxy)phenyl]sulfonyl]-1-cyclopropyl-N-hydroxy-4-piperidinecarboxamide, monohydrochloride] | 206 |  |  |  |  |  |  | 
2 | O=C(NO)C1(S(=O)(=O)c2ccc(Oc3ccc(Cl)cc3)cc2)CCOCC1 [Example 100, 4-[[4-(4-chlorophenoxy)-phenyl]sulfonyl]-tetrahydro-N-hydroxy-2H-pyran-4-carboxamide] |  | 1.50 |  |  |  |  |  | 
3 | O=C(NO)C1(S(=O)(=O)c2ccc(Oc3ccccc3)cc2)CCSCC1 [Example 109] |  | 1.12 |  |  |  |  |  | 
4 | CCOC(=O)C1CCCN(C(=O)N2CCN(c3ccc(S(=O)(=O)C4(C(=O)NO)CCOCC4)cc3)CC2)C1 (stereo not drawn) [Example 212] |  |  | 33 | 20 | > 10000 |  |  | 
5 | O=C(O)C1CCN(c2ccc(S(=O)(=O)C3(C(=O)NO)CCOCC3)cc2)CC1 [Example 129] |  |  | > 100 | 1000 | > 10000 |  |  | 
6 | CC(C)[C@H](N)C(=O)N1CCN(c2ccc(S(=O)(=O)C3(C(=O)NO)CCOCC3)cc2)CC1 [Example 204] |  |  | 25 | 27.1 | > 10000 |  |  | 
7 | O=C(C1CCN(c2ccc(S(=O)(=O)C3(C(=O)NO)CCOCC3)cc2)CC1)N1CCC(O)C1 (stereo not drawn) [Example 173] |  |  | > 1000 | > 100 | > 10000 |  |  | 
8 | O=C(C1CCN(c2ccc(S(=O)(=O)C3(C(=O)NO)CCOCC3)cc2)CC1)N1CCC(N2CCCC2)CC1 [Example 178] |  |  | 540 | > 100 | > 10000 |  |  | 
9 | O=C(NC1CCCCC1)C1CCN(c2ccc(S(=O)(=O)C3(C(=O)NO)CCOCC3)cc2)CC1 [Example 187] |  |  | 290 | 12.1 | > 10000 |  |  | 
10 | O=C(NO)C1(S(=O)(=O)c2ccc(-c3ccc(C(F)(F)F)cc3)cc2)CCOCC1 [Example 221] |  |  | < 1 | < 1 | 1600 |  |  | 
11 | CCOC(=O)C1CCN(C(=O)N2CCN(c3ccc(S(=O)(=O)C4(C(=O)NO)CCOCC4)cc3)CC2)CC1 [Example 211] |  |  | 33 | 24 | > 10000 |  |  | 
12 | O=C(C1CCN(c2ccc(S(=O)(=O)C3(C(=O)NO)CCOCC3)cc2)CC1)N1CCC(c2ccccc2)CC1 [Example 192] |  |  | 330 | 10 | > 10000 |  |  | 
13 | O=C(C1CCN(c2ccc(S(=O)(=O)C3(C(=O)NO)CCOCC3)cc2)CC1)N1CCOCC1 [Example 131] |  |  | 650 | 10 | > 10000 |  |  | 
14 | CN(C)[C@H]1CCN(C(=O)C2CCN(c3ccc(S(=O)(=O)C4(C(=O)NO)CCOCC4)cc3)CC2)C1 [Example 174] |  |  | 900 | > 100 | 8000 |  |  | 
15 | C#CCN1CCC(C(=O)NO)(S(=O)(=O)c2ccc(Sc3ccc(Cl)cc3)cc2)CC1 [Example 44b, 4-[[4-(4-chlorophenyl)thio]phenyl]sulfonyl]-N-hydroxy-1-(propynyl)-4-piperidinecarboxamide, monohydrochloride] |  |  | 8000 | > 10000 | > 10000 |  |  | 
16 | CN1CCN(C(=O)C2CCCN(c3ccc(S(=O)(=O)C4(C(=O)NO)CCOCC4)cc3)C2)CC1 (stereo not drawn) [Example 157] |  |  | 6000 | 90 | > 10000 |  |  | 
17 | CCOC(=O)C1CCCN(C(=O)C2CCCN(c3ccc(S(=O)(=O)C4(C(=O)NO)CCOCC4)cc3)C2)C1 (stereo not drawn) [Example 160] |  |  | 4700 | 33.7 | > 10000 |  |  | 
18 | O=C(O)CNC(=O)C1CCN(c2ccc(S(=O)(=O)C3(C(=O)NO)CCOCC3)cc2)CC1 [Example 135] |  |  | 500 | 65 | > 10000 |  |  | 
19 | C#CCN1CCC(C(=O)O)(S(=O)(=O)c2ccc(Sc3ccc(Cl)cc3)cc2)CC1 [Example 44a, 4-[[4-(4-chlorophenyl)thio]phenyl)sulfonyl]-1-(propynyl)-4-piperidinecarboxylic acid, monohydrochloride] |  |  | < 0.1 | 0.2 | > 10000 |  |  | 
20 | O=C(NO)C1CCN(c2ccc(S(=O)(=O)C3(C(=O)NO)CCOCC3)cc2)CC1 [Example 137] |  |  | 300 | 34.7 | > 10000 |  |  | 
21 | O=C(C1CCCN(c2ccc(S(=O)(=O)C3(C(=O)NO)CCOCC3)cc2)C1)N1CCCC1 (stereo not drawn) [Example 172] |  |  | > 1000 | > 100 | > 10000 |  |  | 

Row | Compound | Blood Level @ 6 hr ([1]; rat, in vivo, po, 20 mg/kg) [ng/mL] | t1/2 [1] [h] | IC50 (recombinant human MMP-2; Inhibition Table B) [nM] | IC50 (recombinant human MMP-13; Inhibition Table B) [nM] | IC50 (recombinant human MMP-1; Inhibition Table B) [nM] | IC50 (recombinant human MMP-2; room temperature, pH 7.5, 1 percent DMSO, 4 μM MCA peptide substrate, no asterisk) [nM] | IC50 (recombinant human MMP-13; room temperature, pH 7.5, 1 percent DMSO, 4 μM MCA peptide substrate) [nM] | IC50 (recombinant human MMP-1) [nM]
22 | O=C(NCc1cccnc1)C1CCN(c2ccc(S(=O)(=O)C3(C(=O)NO)CCOCC3)cc2)CC1 [Example 186] |  |  | 120 | 10 | > 10000 |  |  | 
23 | CC1CCN(C(=O)C2CCN(c3ccc(S(=O)(=O)C4(C(=O)NO)CCOCC4)cc3)CC2)CC1 [Example 190] |  |  | 220 | 10.6 | > 10000 |  |  | 
24 | CCOC(=O)C1CCN(C(=O)C2CCCN(c3ccc(S(=O)(=O)C4(C(=O)NO)CCOCC4)cc3)C2)CC1 (stereo not drawn) [Example 159] |  |  | 2500 | 15.6 | > 10000 |  |  | 
25 | N[C@H]1CCN(C(=O)C2CCCN(c3ccc(S(=O)(=O)C4(C(=O)NO)CCOCC4)cc3)C2)C1 (stereo partly drawn) [Example 168] |  |  | > 1000 | > 100 | > 10000 |  |  | 
26 | O=C(C1CCN(c2ccc(S(=O)(=O)C3(C(=O)NO)CCOCC3)cc2)CC1)N1CCCC2CCCCC21 (stereo not drawn) [Example 177] |  |  | 400 | 21 | > 10000 |  |  | 
27 | O=C(C1CCN(c2ccc(S(=O)(=O)C3(C(=O)NO)CCOCC3)cc2)CC1)N1CCC(Cc2ccccc2)CC1 [Example 191] |  |  | 350 | 4 | > 10000 |  |  | 
28 | O=C(C1CCN(c2ccc(S(=O)(=O)C3(C(=O)NO)CCOCC3)cc2)CC1)N1CCc2ccccc2C1 [Example 199] |  |  | 155 | 1.4 | > 10000 |  |  | 
29 | O=C(NCc1cccs1)C1CCN(c2ccc(S(=O)(=O)C3(C(=O)NO)CCOCC3)cc2)CC1 [Example 189] |  |  | 94 | 8 | 3700 |  |  | 
30 | CCOC(=O)C1CCCN(C(=O)C2CCN(c3ccc(S(=O)(=O)C4(C(=O)NO)CCOCC4)cc3)CC2)C1 (stereo not drawn) [Example 153] |  |  | 2700 | 13.5 | > 10000 |  |  | 
31 | CCOC(=O)C1CCCCN1C(=O)C1CCN(c2ccc(S(=O)(=O)C3(C(=O)NO)CCOCC3)cc2)CC1 (stereo not drawn) [Example 154] |  |  | 1600 | 27 | > 10000 |  |  | 
32 | CN(C)[C@H]1CCN(C(=O)C2CCCN(c3ccc(S(=O)(=O)C4(C(=O)NO)CCOCC4)cc3)C2)C1 (stereo partly drawn) [Example 167] |  |  | > 1000 | > 100 | > 10000 |  |  | 
33 | O=C(NO)C1CCCN(c2ccc(S(=O)(=O)C3(C(=O)NO)CCOCC3)cc2)C1 (stereo not drawn) [Example 146] |  |  | 650 | 32.6 | > 10000 |  |  | 
34 | O=C(NO)C1(S(=O)(=O)c2ccc(SC3CCCCC3)cc2)CCN(C2CC2)CC1 [Example 21] |  |  |  |  |  | 1.3 | 0.6 | > 10000
35 | Cc1cc(-c2ccc(S(=O)(=O)C3(C(=O)NO)CCOCC3)cc2)ccc1F [Example 222] |  |  | < 1 | < 1 | 100 |  |  | 
36 | NCCCNC(=O)C1CCN(c2ccc(S(=O)(=O)C3(C(=O)NO)CCOCC3)cc2)CC1 [Example 133] |  |  | 90 | 27 | > 10000 |  |  | 
37 | O=C(C1CCCN(c2ccc(S(=O)(=O)C3(C(=O)NO)CCOCC3)cc2)C1)N1CCC(N2CCCC2)CC1 (stereo not drawn) [Example 171] |  |  | > 1000 | > 100 | > 10000 |  |  | 
38 | CN1CCN(C(=O)C2CCN(c3ccc(S(=O)(=O)C4(C(=O)NO)CCOCC4)cc3)CC2)CC1 [Example 150] |  |  | 1300 | 14.5 | > 10000 |  |  | 
39 | O=C(O)CNC(=O)C1CCCN(c2ccc(S(=O)(=O)C3(C(=O)NO)CCOCC3)cc2)C1 (stereo not drawn) [Example 144] |  |  | 800 | 30.7 | > 10000 |  |  | 
40 | O=C(C1CCN(c2ccc(S(=O)(=O)C3(C(=O)NO)CCOCC3)cc2)CC1)N(Cc1ccccc1)Cc1ccccc1 [Example 198] |  |  | 270 | 14.5 | > 10000 |  |  | 
41 | CN(C)C(=O)C1CCCN(c2ccc(S(=O)(=O)C3(C(=O)NO)CCOCC3)cc2)C1 (stereo not drawn) [Example 155] |  |  | > 1000 | > 100 | > 10000 |  |  | 
